Experimental data taken from ChEMBL document CHEMBL5321222, “N(14)-substituted evodiamine derivatives as dual topoisomerase 1/tubulin-Inhibiting anti-gastrointestinal tumor agents” (Eur J Med Chem, 2023).
The source made the active and inactive calls. The calls are words filed in the database; no cut-off is given here.

Legend:
[1] = tested on: RKO; test: Induction of cell cycle arrest in human RKO cells assessed as accumulation of cells at G2/M phase at 0.05 to 0.2 uM incubated for 24 hrs by propidium iodide staining based flow cytometry analysis; format: functional; details: dose 0.05-0.2 µM
[2] = tested on: MGC-803; test: Inhibition of cell […] in human MGC-803 cells at 5 nM incubated for 24 hrs by scratch wound healing assay; format: functional, cell-based
[3] = tested on: LoVo; test: Antiproliferative activity against human LoVo cells assessed as reduction in cell viability incubated for 72 hrs by MTT assay; format: functional, cell-based
[4] = tested on: RKO; test: Antiproliferative activity against human RKO cells assessed as reduction in cell viability incubated for 72 hrs by MTT assay; format: functional, cell-based
[5] = tested on: HGC-27; test: Antiproliferative activity against human HGC-27 cells assessed as reduction in cell viability incubated for 72 hrs by MTT assay; format: functional, cell-based; details: HGC-27, 72 h
[6] = tested on: SGC-7901; test: Antiproliferative activity against human SGC-7901 cells assessed as reduction in cell viability incubated for 72 hrs by MTT assay; format: functional, cell-based; details: SGC-7901, 72 h
[7] = tested on: GES1; test: Antiproliferative activity against human GES1 cells assessed as reduction in cell viability incubated for 72 hrs by MTT assay; format: functional, cell-based; details: GES1, 72 h
[8] = tested on: MGC-803; test: Antiproliferative activity against human MGC-803 cells assessed as reduction in cell viability incubated for 24 hrs by BrdU staining based fluorescence microscopic analysis; format: functional; details: dose 10-90 nM
[9] = tested on: RKO; test: Antiproliferative activity against human RKO cells assessed as reduction in cell viability incubated for 24 hrs by BrdU staining based fluorescence microscopic analysis; format: functional; details: dose 10-90 nM
[10] = tested on: RKO; test: Inhibition of colony formation in human RKO cells incubated for 7 days by crystal violet staining based assay; format: functional, cell-based; details: dose 10-90 nM, time 7.0 day
[11] = tested on: MGC-803; test: Inhibition of colony formation in human MGC-803 cells at 90 nM incubated for 7 days by crystal violet staining based assay; format: functional, cell-based; details: time 7.0 day
[12] = tested on: MGC-803; test: Induction of apoptosis in human MGC-803 cells assessed as late apoptotic cells at 0.2 uM incubated for 24 hrs by propidium iodide and Annexin V/FITC staining based flow cytometry assay (reference value: 4.10%); format: functional
[13] = tested on: MGC-803; test: Inhibition of cell migration in human MGC-803 cells assessed as reduction in tumor wound healing incubated for 24 hrs by microscopic analysis; format: functional, cell-based; details: dose 10-90 nM
[14] = tested on: MGC-803; test: Induction of cell cycle arrest in human MGC-803 cells assessed as accumulation of cells at G2/M phase at 0.05 uM incubated for 24 hrs by propidium iodide staining based flow cytometry analysis; format: functional
[15] = tested on: MGC-803; test: Induction of apoptosis in human MGC-803 cells assessed as early apoptotic cells at 0.2 uM incubated for 24 hrs by propidium iodide and Annexin V/FITC staining based flow cytometry assay (reference value: 1.85%); format: functional
[16] = tested on: MGC-803; test: Induction of apoptosis in human MGC-803 cells assessed as late apoptotic cells at 0.05 uM incubated for 24 hrs by propidium iodide and Annexin V/FITC staining based flow cytometry assay (reference value: 4.10%); format: functional
[17] = tested on: RKO; test: Induction of apoptosis in human RKO cells assessed as early apoptotic cells at 0.2 uM incubated for 24 hrs by propidium iodide and Annexin V/FITC staining based flow cytometry assay (reference value: 0.16%); format: functional
[18] = tested on: RKO; test: Induction of apoptosis in human RKO cells assessed as early apoptotic cells at 0.05 uM incubated for 24 hrs by propidium iodide and Annexin V/FITC staining based flow cytometry assay (reference value: 0.16%); format: functional
[19] = tested on: RKO; test: Induction of apoptosis in human RKO cells assessed as late apoptotic cells at 0.05 uM incubated for 24 hrs by propidium iodide and Annexin V/FITC staining based flow cytometry assay (reference value: 0.50%); format: functional
[20] = tested on: RKO; test: Induction of apoptosis in human RKO cells assessed as late apoptotic cells at 0.1 uM incubated for 24 hrs by propidium iodide and Annexin V/FITC staining based flow cytometry assay (reference value: 0.50%); format: functional
[21] = tested on: MGC-803; test: Induction of morphological changes in human MGC-803 cells assessed as cell shrinkage at 0.05 to 0.2 uM incubated for 24 hrs by Giemsa staining based micrscopic analysis; format: functional; details: dose 0.05-0.2 µM
[22] = tested on: MGC-803; test: Induction of morphological changes in human MGC-803 cells assessed as formation of apoptotic bodies at 0.05 to 0.2 uM incubated for 24 hrs by Giemsa staining based micrscopic analysis; format: functional, cell-based; details: dose 0.05-0.2 µM
[23] = tested on: RKO; test: Induction of morphological changes in human RKO cells assessed as cell deformation at 0.05 to 0.2 uM incubated for 24 hrs by Giemsa staining based micrscopic analysis; format: functional; details: dose 0.05-0.2 µM
[24] = tested on: RKO; test: Induction of morphological changes in human RKO cells assessed as formation of apoptotic bodies at 0.05 to 0.2 uM incubated for 24 hrs by Giemsa staining based micrscopic analysis; format: functional, cell-based; details: dose 0.05-0.2 µM
[25] = target: T1, DNA topoisomerase 1 (Homo sapiens) (UniProt P11387); test: Inhibition of topoisomerase 1 (unknown origin) at 200 uM using PBR322 DNA as substrate incubated for 30 mins by agarose gel electrophoresis
T1 sequence (whole entry): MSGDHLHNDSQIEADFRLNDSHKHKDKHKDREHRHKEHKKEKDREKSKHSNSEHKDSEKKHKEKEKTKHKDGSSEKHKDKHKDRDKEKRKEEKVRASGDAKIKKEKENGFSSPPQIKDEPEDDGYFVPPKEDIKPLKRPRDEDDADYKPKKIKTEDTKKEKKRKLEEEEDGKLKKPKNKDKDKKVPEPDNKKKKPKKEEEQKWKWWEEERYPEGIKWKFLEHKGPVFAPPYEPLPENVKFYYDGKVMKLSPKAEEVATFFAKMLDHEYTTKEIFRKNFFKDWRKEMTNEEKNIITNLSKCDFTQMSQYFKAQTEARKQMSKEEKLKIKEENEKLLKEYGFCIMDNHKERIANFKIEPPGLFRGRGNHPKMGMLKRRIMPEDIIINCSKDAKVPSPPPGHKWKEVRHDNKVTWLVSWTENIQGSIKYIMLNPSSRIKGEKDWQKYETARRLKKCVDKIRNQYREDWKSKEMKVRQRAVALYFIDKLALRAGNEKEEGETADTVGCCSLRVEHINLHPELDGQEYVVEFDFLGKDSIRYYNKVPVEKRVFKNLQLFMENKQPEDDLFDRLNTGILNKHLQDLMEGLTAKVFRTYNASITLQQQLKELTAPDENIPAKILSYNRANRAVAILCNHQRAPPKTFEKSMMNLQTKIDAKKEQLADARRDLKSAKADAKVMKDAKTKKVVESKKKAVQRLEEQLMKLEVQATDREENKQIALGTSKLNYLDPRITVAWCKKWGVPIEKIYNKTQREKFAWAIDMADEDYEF

[26] = target: T2, Tubulin (Homo sapiens) (UniProt P68371+Q9H4B7+P0DPH7+P68366+Q13509+Q71U36+P04350+Q3ZCM7+P07437+P68363+Q9BQE3+Q6PEY2+Q13885+Q9BVA1+Q9BUF5); test: Induction of microtubule disruption in human MGC-803 cells assessed as atrophied nucleus at 50 to 200 nM incubated for 24 hrs by laser confocal microscopic analysis; format: cell-based; details: dose 50-200 nM
[27] = target: T2, Tubulin (Homo sapiens); test: (§1) Inhibition of tubulin polymerization (unknown origin) measured every minute; format: protein-complex assay
[28] = target: Tubulin; test: as §1; format: protein-complex assay, Homo sapiens

## CCCN1c2ccccc2C(=O)N2CCc3c([nH]c4ccccc34)C21 (stereo not drawn)
[1]
  Activity: Active
[2]
  inhibition: Active
[3]
  IC50: 230 nM
[4]
  IC50: 200 nM
[5]
  IC50: 810 nM
[6]
  IC50: 90 nM
[7]
  IC50: 130 nM
[8]
  Activity: Dose-Dependent Effect
[9]
  Activity: Dose-Dependent Effect
[10]
  inhibition: Dose-Dependent Effect
[11]
  inhibition: Active
[12]
  Activity: 25.1%
[13]
  inhibition: Dose-Dependent Effect
[14]
  Activity: 40.55%
[15]
  Activity: 12.28%
[16]
  Activity: 6.84%
[17]
  Activity: 14.35%
[18]
  Activity: 9.67%
[19]
  Activity: 21.45%
[20]
  Activity: 33.41%
[21]
  Activity: Active
[22]
  Activity: Active
[23]
  Activity: Active
[24]
  Activity: Active
[25]
  inhibition: Active
[26]
  Activity: Active
[27]
  inhibition: Dose-Dependent Effect
[28]
  IC50: 5690 nM
